Active and inactive are the calls of the source.

This is an account of results in ChEMBL document CHEMBL1153985, “In vitro and in vivo SAR of pyrido[3,4-d]pyramid-4-ylamine based mGluR1 antagonists” (Bioorg Med Chem Lett, 2009).

Data set [1] concerns the target Metabotropic glutamate receptor 1 (Rattus norvegicus, UniProt P23385). Kind of data set: Antagonist activity at rat mGluR1a expressed in CHO cells assessed as inhibition of glutamate-evoked increase in calcium […] preincubated 5 mins before glutamate challenge. The data set is classed as functional, cell-based.
Data set [2] is described as follows: Ratio of free drug level in cerebrospinal fluid to steady state unbound plasma in iv dosed rat. The data set is classed as ADME, organism-based.
Data set [3] is described as follows: Lipophilicity, log D of the compound. The data set is classed as physicochemical. The following applies: octanol/water.
Data set [4] concerns Rattus norvegicus. Kind of data set: Analgesic activity in awake rat at 0.3 mg/kg, iv administered as bolus dose for 30 seconds and 0.3 mg/kg/hr, iv administered via infusion measured after 1 hr. Format: functional, organism-based.
Data set [5] concerns Rattus norvegicus. The data set is described as follows: Antinociceptive activity in anaesthetized rat assessed as inhibition of noxious pinch-induced electromyograph response at 0.3 mg/kg, iv administered as bolus dose for 30 seconds and 0.3 mg/kg/hr, iv administered via infusion measured after 1 hr. The data set is classed as functional.
The subject of data set [6] is Liver microsomes. Kind of data set: Metabolic stability in human liver microsomes assessed as intrinsic clearance. The data set is classed as ADME, Microsome. In general terms: Liver microsomes are vesicles of endoplasmic reticulum, rich in cytochrome P450 enzymes.
Data set [7] deals with Rattus norvegicus. Kind of data set: Antinociceptive activity in anaesthetized rat assessed as maximal inhibition of noxious pinch-induced electromyograph response at 8 to 16 fold free Ki concentration in cerebrospinal fluid measured after 1 hr. Format: functional, organism-based.
For data set [8], the target named is Metabotropic glutamate receptor 1 (Homo sapiens, UniProt Q13255). Kind of data set: Antagonist activity at mGluR1. Format: functional.
Metabotropic glutamate receptor 1 (Homo sapiens, UniProt Q13255), sequence (Q13255 whole entry): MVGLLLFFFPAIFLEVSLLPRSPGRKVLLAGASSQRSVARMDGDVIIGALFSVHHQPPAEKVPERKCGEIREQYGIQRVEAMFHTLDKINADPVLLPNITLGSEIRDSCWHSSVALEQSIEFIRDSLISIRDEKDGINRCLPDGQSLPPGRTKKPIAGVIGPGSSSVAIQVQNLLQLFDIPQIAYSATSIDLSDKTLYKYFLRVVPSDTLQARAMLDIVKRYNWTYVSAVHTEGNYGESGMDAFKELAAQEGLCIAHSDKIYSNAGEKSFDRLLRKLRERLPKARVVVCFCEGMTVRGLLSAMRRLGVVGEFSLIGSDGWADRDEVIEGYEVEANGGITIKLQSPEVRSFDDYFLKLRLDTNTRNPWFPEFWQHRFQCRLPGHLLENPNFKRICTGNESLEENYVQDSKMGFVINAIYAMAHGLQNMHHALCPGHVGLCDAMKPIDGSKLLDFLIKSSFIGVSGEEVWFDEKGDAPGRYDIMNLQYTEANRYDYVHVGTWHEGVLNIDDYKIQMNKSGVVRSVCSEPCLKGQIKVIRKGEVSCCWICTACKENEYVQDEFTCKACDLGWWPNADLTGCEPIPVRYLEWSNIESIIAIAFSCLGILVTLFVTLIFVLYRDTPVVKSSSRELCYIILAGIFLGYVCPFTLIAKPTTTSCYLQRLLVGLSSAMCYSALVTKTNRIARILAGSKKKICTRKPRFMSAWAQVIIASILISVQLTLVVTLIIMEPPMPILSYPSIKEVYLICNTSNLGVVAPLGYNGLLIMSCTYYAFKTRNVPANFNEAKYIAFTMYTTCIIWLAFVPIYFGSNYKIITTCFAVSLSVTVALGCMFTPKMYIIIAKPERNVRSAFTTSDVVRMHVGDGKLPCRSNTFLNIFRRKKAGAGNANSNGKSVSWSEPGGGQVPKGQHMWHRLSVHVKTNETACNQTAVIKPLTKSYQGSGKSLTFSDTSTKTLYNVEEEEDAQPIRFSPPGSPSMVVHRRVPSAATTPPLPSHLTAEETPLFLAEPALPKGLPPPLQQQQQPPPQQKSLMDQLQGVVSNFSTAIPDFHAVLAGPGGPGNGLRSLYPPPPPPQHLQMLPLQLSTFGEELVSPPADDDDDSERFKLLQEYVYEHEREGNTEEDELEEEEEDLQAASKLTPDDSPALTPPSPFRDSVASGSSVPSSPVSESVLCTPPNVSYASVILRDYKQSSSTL
Data set [9] in a line: Half life in rat at 1 mg/kg. Format: ADME, organism-based. More on the design: dose 1 mg/kg. The settings on record: in vivo.
A short description of data set [10]: Clearance in rat at 1 mg/kg. Format: ADME, organism-based. Also on record: dose 1 mg/kg. The following applies: in vivo.
The nature of data set [11]: Volume of distribution in rat at 1 mg/kg. The data set is classed as ADME, organism-based. More on the design: dose 1 mg/kg. The following applies: in vivo.
Data set [12] can be described thus: Oral bioavailability in rat at 1 mg/kg. Format: ADME, organism-based. The following applies: in vivo.
A short description of data set [13]: Protein binding in rat plasma at 1 mg/kg. The data set is classed as ADME, organism-based. More on the design: dose 1 mg/kg. The following applies: read-out: PPB (converted).
Data set [14] relates to Liver microsomes. Kind of data set: Metabolic stability in rat liver microsomes assessed as intrinsic clearance. Format: ADME, Microsome.
The target in data set [15] is Metabotropic glutamate receptor 5 (Homo sapiens, UniProt P41594). The data set is described as follows: Antagonist activity at mGluR5. Format: functional.
Metabotropic glutamate receptor 5, sequence (P41594 whole entry, the tested form may be a part): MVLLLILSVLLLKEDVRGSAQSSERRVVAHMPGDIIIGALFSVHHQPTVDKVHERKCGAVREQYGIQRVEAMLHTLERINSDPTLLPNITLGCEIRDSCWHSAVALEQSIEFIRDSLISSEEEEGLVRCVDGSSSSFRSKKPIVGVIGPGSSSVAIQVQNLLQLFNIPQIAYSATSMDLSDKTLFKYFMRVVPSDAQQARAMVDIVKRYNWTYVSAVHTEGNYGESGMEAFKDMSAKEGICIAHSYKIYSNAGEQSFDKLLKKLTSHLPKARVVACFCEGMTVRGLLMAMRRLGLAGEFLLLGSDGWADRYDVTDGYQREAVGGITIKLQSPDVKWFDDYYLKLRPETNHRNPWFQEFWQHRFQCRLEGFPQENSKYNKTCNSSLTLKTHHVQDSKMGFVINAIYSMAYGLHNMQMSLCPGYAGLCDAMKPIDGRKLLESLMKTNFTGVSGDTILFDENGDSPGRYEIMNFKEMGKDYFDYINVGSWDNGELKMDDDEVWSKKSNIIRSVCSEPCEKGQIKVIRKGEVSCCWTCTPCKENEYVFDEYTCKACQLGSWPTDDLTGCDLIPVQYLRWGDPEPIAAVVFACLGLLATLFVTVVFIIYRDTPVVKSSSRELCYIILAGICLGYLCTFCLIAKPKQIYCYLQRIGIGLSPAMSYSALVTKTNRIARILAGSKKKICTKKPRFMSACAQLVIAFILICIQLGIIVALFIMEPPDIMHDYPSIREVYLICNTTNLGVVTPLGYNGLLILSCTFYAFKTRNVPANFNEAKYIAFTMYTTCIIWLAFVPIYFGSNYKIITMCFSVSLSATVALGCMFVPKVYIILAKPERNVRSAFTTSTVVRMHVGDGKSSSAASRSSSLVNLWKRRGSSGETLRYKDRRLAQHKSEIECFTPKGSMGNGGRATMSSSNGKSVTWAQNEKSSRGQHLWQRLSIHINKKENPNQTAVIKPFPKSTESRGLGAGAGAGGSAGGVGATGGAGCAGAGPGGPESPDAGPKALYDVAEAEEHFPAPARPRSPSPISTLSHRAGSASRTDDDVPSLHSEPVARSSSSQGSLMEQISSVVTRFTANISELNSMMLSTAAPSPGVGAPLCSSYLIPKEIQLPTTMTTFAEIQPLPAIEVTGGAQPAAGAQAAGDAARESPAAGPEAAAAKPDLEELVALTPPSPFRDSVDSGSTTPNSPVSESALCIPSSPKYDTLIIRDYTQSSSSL
The test system of data set [16] is Rattus norvegicus. Kind of data set: Antinociceptive activity in anaesthetized rat assessed as inhibition of noxious pinch-induced electromyograph response at 22 mg/kg, iv administered as bolus dose for 30 seconds and 9.6 mg/kg/hr, iv administered via infusion measured after 1 hr. Format: functional, organism-based.
The test system of data set [17] is Rattus norvegicus. Kind of data set: Antinociceptive activity in anaesthetized rat assessed as inhibition of low threshold tactile stimulus-induced electromyograph response at 22 mg/kg, iv administered as bolus dose for 30 seconds and 9.6 mg/kg/hr, iv administered via infusion measured after 1 hr. The data set is classed as functional, organism-based.
Data set [18] relates to Rattus norvegicus. The data set is described as follows: Antinociceptive activity in anaesthetized rat assessed as maximal inhibition of noxious pinch-induced electromyograph response at 10 fold free Ki concentration in cerebrospinal fluid measured after 1 hr. The data set is classed as functional, organism-based.
Data set [19] relates to Rattus norvegicus. Kind of data set: Free plasma concentration in anaesthetized electromyograph pinch rat model at 22 mg/kg, iv administered as bolus dose for 30 seconds and 9.6 mg/kg/hr, iv administered via infusion. Format: ADME, organism-based. The following applies: in vivo.
The subject of data set [20] is Rattus norvegicus. Kind of data set: Toxicity in anaesthetized electromyograph pinch rat model assessed as effect on sensory input to spinal cord at 22 mg/kg, iv administered as bolus dose for 30 seconds and 9.6 mg/kg/hr, iv administered via infusion. The data set is classed as organism-based. The settings on record: in vivo.
The nature of data set [21]: Solubility of the compound. Format: physicochemical.

Metabotropic glutamate receptor 1 (Rattus norvegicus, UniProt P23385), sequence (P23385 whole entry): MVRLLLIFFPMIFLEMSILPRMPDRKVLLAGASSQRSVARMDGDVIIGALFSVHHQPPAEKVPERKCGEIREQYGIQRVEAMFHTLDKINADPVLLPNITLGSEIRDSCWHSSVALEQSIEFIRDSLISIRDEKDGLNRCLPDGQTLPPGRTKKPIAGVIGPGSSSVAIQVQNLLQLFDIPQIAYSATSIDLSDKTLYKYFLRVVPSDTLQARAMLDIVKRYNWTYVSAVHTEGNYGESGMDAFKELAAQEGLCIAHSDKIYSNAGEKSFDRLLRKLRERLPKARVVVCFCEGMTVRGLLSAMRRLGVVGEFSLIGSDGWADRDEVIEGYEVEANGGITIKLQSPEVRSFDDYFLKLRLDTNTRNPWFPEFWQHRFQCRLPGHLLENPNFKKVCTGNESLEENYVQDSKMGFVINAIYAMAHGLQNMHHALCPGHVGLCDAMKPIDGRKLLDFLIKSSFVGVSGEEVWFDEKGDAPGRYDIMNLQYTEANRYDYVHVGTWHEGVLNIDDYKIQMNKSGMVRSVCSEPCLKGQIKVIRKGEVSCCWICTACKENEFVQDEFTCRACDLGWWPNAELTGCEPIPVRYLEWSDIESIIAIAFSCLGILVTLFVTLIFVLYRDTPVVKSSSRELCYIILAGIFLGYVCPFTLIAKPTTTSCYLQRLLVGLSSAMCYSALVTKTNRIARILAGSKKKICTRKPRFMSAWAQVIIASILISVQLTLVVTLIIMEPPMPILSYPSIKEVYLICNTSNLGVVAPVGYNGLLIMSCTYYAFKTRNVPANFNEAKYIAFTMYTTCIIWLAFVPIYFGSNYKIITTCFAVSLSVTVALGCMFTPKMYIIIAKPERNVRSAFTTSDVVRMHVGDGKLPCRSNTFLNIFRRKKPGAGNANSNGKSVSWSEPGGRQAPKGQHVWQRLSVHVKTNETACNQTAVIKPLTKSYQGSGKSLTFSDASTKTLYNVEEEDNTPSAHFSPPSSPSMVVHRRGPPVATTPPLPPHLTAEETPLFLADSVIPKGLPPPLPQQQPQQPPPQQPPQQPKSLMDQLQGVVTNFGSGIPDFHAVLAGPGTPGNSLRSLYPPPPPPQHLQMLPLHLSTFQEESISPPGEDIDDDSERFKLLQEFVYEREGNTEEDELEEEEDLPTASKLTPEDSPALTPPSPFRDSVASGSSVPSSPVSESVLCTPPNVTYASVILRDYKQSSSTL

`c1ccc2c(NC3CCCCC3)ccnc2c1`: the inhibition constant (Ki) – broadly, the dissociation constant of the complex between target and ligand, obtained from inhibition or displacement – in data set [1] turned out to be 6160 nM. As for `OCCCOc1cc2c(NC3CCCCC3)ncnc2cn1`, the inhibition constant (Ki) in data set [1] is 33 nM. On to `NCCNc1cc2c(NC3CCCCC3)ncnc2cn1`, for which the Ki in data set [1] came to 2200 nM. Still for that read-out and setting: under `CCCC(C)Nc1ncnc2cnc(N(C)C)cc12` (centres undefined) stands 858 nM; under `O=C1CCCN1CCOc1cc2c(NC3CCCCC3)ncnc2cn1`, 20 nM. Same read-out and setting: under `CNc1cc2c(N(C)C3Cc4ccccc4C3)ncnc2cn1` stands 54 nM. Same read-out and setting: to `OCCOc1cc2c(NC3CCCCC3)ncnc2cn1` belongs 177 nM. As to `CNc1cc2c(NC3Cc4ccccc4C3)ncnc2cn1`, the Ki in [1] was 14 nM. In [2], the Kp uu stood at 0.06. Further, the log distribution coefficient (logD) (usually the decadic logarithm of the distribution of all forms, ionised or not, between an organic phase and buffer at a given pH) in [3] was 2.9. As for `CN(C)c1cc2c(NC3CCCCC3)ncnc2cn1`, in data set [1], the Ki was 199 nM. On to `CN1CC[C@]23c4c5ccc(O)c4O[C@H]2[C@@H](O)C=C[C@H]3[C@H]1C5` [MORPHINE], for which the result in [4] was Active. The inhibition in vivo (commonly the drop in the measured response relative to a control, in per cent) at 0.3 mg/kg in data set [5] came to 40%. Regarding `CN(C)CCNc1cc2c(NC3Cc4ccccc4C3)ncnc2cn1`, the Ki in data set [1] was 102 nM. On the same count and under the same terms, under `CNc1ncnc2cnc(NC3Cc4ccccc4C3)cc12` stands 160 nM. Still for that read-out and setting: to `c1nc(NC2CCCCC2)c2cc(OCCN3CCOCC3)ncc2n1` belongs 42 nM.

In the case of `c1ccc2c(c1)CC(Nc1nccc3ccccc13)C2`, the Ki in data set [1] turned out to be 1650 nM. The same measure, in the same setting: to `OCCNc1ncnc2cnc(NC3Cc4ccccc4C3)cc12` belongs 125 nM; to `NCCCNc1cc2c(NC3CCCCC3)ncnc2cn1`, 200 nM.

For `COCCOc1cc2c(NC3CCCCC3)ncnc2cn1`, the inhibitory constant (Ki) in [1] stood at 101 nM. On to `c1nc(NC2CCCCCC2)c2cc(OCCN3CCOCC3)ncc2n1`, for which the Ki in data set [1] is 6 nM. The clearance in data set [6] came out at 24 µL/min/mg. The Kp uu in [2] came out at 0.5. In data set [3], this compound gave a logD of 3.4. Further, in data set [7], the inhibition result is “Active”. Take `OCCNc1cc2c(NC3Cc4ccccc4C3)ncnc2cn1`: the Ki in [1] came out at 21 nM. For `Nc1cc2c(Nc3ccc(F)c(Cl)c3)ncnc2cn1`, the midpoint of inhibition in data set [8], the IC50, lay at 300 nM. For the compound `CN(C)c1cc2c(N(C)C3Cc4ccccc4C3)ncnc2cn1`, the Ki in data set [1] amounted to 300 nM.

For the compound `c1nc(NC2CCCCC2)c2cc(NCCN3CCOCC3)ncc2n1`, the inhibitory constant (Ki) in [1] turned out to be 10 nM. For the same compound, the Kp uu in data set [2] stood at 0.07. The log distribution coefficient (logD) in [3] amounted to 2.8.

In the case of `COCCNc1cc2c(NC3Cc4ccccc4C3)ncnc2cn1`, in [1], the Ki was found to be 5 nM. Still for that read-out and setting: to `COc1cc2c(NC3Cc4ccccc4C3)ncnc2cn1` belongs 115 nM. As for `OCCOCCNc1cc2c(NC3Cc4ccccc4C3)ncnc2cn1`, the inhibition constant (Ki) in data set [1] was 3 nM. Also, the IC50 (commonly the concentration needed to halve the response being measured) in [8] is 3 nM; in data set [15], more than 3000 nM. Moreover, the half-life (in general, the time in which the quantity being followed falls by half) in [9] is 18 min. For the same compound, the values for the clearance in data set [10], in data set [6] and in data set [14] were 26 mL/min/kg, less than 7 µL/min/mg and 30 µL/min/mg, respectively. In data set [11], the Vd (in general, a proportionality between amount in the body and measured concentration, not a real space) is 0.6 L/kg. The bioavailability (as a rule, dose-corrected exposure relative to a reference, in per cent) in [12] worked out at 33%. For the same compound, the fraction unbound in data set [13] is 0.19. In addition, the inhibition result in data set [16] and in data set [18] was “Active” throughout. For the same compound, the inhibition entry in data set [17] was “inactive”. Further, the Cp in data set [19] was more than 1000 nM. Also, in data set [20], the Activity entry was “Non-toxic”. For the same compound, the solubility result in [21] is reported as “Insoluble”. Moreover, the Kp uu in data set [2] was 0.02. Besides, the logD in data set [3] came to 3. Regarding `c1ccc2c(c1)CC(Nc1cc3c(NC4Cc5ccccc5C4)ncnc3cn1)C2`, the Ki in data set [1] turned out to be 31 nM. Same read-out and setting: under `OCCNc1cc2c(NCCO)ncnc2cn1` stands 6150 nM. Still for that read-out and setting: under `COCCNc1cc2c(NC3CCCCC3)ncnc2cn1` stands 11 nM; under `CN(C)c1cc2c(NC3Cc4ccccc4C3)ncnc2cn1`, 185 nM; under `C[C@H](Nc1ncnc2cnc(N(C)C)cc12)c1ccccc1`, 1400 nM. Still for that read-out and setting: to `c1ccc2c(OC3CCCCC3)ncnc2c1` belongs 694 nM. In the case of `c1ccc2c(NC3CCCCC3)ncnc2c1`, the inhibitory constant (Ki) in data set [1] was 27 nM. On the same count and under the same terms, to `c1ccc2c(c1)CC(Nc1ncnc3ccccc13)C2` belongs 34 nM.
